Values after ≈ are worked out from the molar mass of the structure shown. “Also recorded” adds a separate entry of the source. Counter-ions that a name gives are not always drawn.

Consider 17 molecules from patent US4110328A, “Bis-carbamylguanidinoazaalkane antimicrobial compounds” (Cooper Laboratories, Inc., priority 1976, dated 1978).

Data set [1] has as its system S. Mutans, Strain OMZ-176E. The data set is described as follows: Serial dilution minimum inhibitory concentration (MIC) test, S. mutans. The class given is cell-based. Particulars: Streptococcus mutans, half strength brain-heart infusion broth, 37° C, 36 hours. The method, then: A quantitative serial dilution test may also be performed by the following procedure. A 20 mg/ml solution of the compound to be tested is prepared in a standard brain-heart infusion broth medium which has been diluted with water to one-half standard strength. Serial dilutions are prepared by adding 1 ml of the solution to a test tube containing 9 ml of medium. Five milliliters of the resulting solution are then added to another test tube containing 5 ml of the medium. The resulting solution is then again diluted by the same procedure. Ordinarily one tenfold dilution and four twofold dilutions are made. The procedure can be continued if more dilute solutions are required. Each of the series of tubes containing solutions of the compounds to be assayed is inoculated with two drops of a heavy culture of the chosen microorganisms in the brain-heart infusion broth. The tubes are incubated at 37° C for 36 hours and the most dilute solution showing no microbial growth is noted. The concentration of this solution is reported as the minimal inhibitory concentration (MIC). The minimum inhibitory concentration of a number of a number of compounds of this invention with respect to the microorganism S. Mutans, Strain OMZ-176E were determined by the procedure described above. Chlorhexidine diacetate, a commercially successful antimicrobial, was used as a control.

Another data set concerns E. coli. The data set is described as follows: Serial dilution MIC test, E. coli. Type of data set: cell-based. Particulars: Escherichia coli, read-out: MINIMUM […]. E. coli; trypticase soy broth, 37° C, 36 hours; read-out: MINIMUM INHIBITORY CONCN. E. coli. How it is done: (§1) A quantitative serial dilution test may also be performed by the following procedure.
(§2) A 20 mg/ml solution of the compound to be tested is prepared in a standard brain-heart infusion broth medium which has been diluted with water to one-half standard strength.
(§3) Serial dilutions are prepared by adding 1 ml of the solution to a test tube containing 9 ml of medium. Five milliliters of the resulting solution are then added to another test tube containing 5 ml of the medium. The resulting solution is then again diluted by the same procedure. Ordinarily one tenfold dilution and four twofold dilutions are made. The procedure can be continued if more dilute solutions are required. Each of the series of tubes containing solutions of the compounds to be assayed is inoculated with two drops of a heavy culture of the chosen microorganisms in the brain-heart infusion broth. The tubes are incubated at 37° C for 36 hours and the most dilute solution showing no microbial growth is noted. The concentration of this solution is reported as the minimal inhibitory concentration (MIC).
(§4) A number of compounds of this invention were tested for in vitro antimicrobial activity against several pathogenic microorganisms using the above described procedure except that trypticase soy broth was used in place of half strength brain-heart infusion as the medium.

Another data set has as its system S. aureus. Kind of data set: Serial dilution MIC test, S. aureus. Particulars: Staphylococcus aureus, read-out: MINIMUM […]. S. aureus; trypticase soy broth, 37° C, 36 hours; read-out: MINIMUM INHIBITORY CONCN. S. aureus. Type of data set: cell-based. How it is done: as §1, §2, §3, §4
A further data set has as its system Ps. aeruginosa. Kind of data set: Serial dilution MIC test, Ps. aeruginosa. The class given is cell-based. Particulars: Pseudomonas aeruginosa; trypticase soy broth, 37° C, 36 hours; read-out: MINIMUM INHIBITORY CONCN. Ps. aeruginosa. The method, then:
as §1, §2, §3, §4

Another data set concerns C. albicans. Kind of data set: Serial dilution MIC test, C. albicans. Type of data set: cell-based. Particulars: Candida albicans; trypticase soy broth, 37° C, 36 hours; read-out: MINIMUM INHIBITORY CONCN. C. albicans. The method, then: as §1, §2, §3, §4
Another data set concerns A. niger. Kind of data set: Serial dilution MIC test, A. niger. The class given is cell-based. Particulars: Aspergillus niger; trypticase soy broth, 37° C, 36 hours; read-out: MINIMUM INHIBITORY CONCN. A. niger. How it is done:
as §1, §2, §3, §4

The conditions of data set [2]: cited from earlier work; for taste perception of foodstuffs: for several hours; for clinical antiplaque effectiveness: in vivo; for local irritation: oral mucosa and tongue; for staining of teeth, tongue, gums, oral mucosa: prolonged use.
A short description of data set [3]: Staining of extracted human incisors in vitro. Particulars: ten days; for discoloration of teeth: 0.2% and 1% solutions, 10 minutes daily, saliva at 37° C. The method, then: The staining properties of the compound of Example II were compared with those of chlorhexidine by the following procedure. Test solutions were prepared containing 0.2% and 1% of chlorhexidine and 0.2% and 1% of the compound of Example II as the trimethanesulfonate salt. Extracted human incisors, which were used without cleaning or other treatment which would remove the dental pellicle, were suspended from wires. Daily, each tooth was immersed for 10 minutes in one of the test solutions, then suspended in whole stimulated saliva and incubated at 37° C for 24 hours.

`N=C(NCCCCCCNC(=N)NC(=N)Nc1ccc(Cl)cc1)NC(=N)Nc1ccc(Cl)cc1` [chlorhexidine diacetate, reference compound] showed an MIC in data set [1] of 0.156 to 0.312 µg/mL.
With `CCCCCCCCNC(=O)NC(=N)NCCCN1CCN(CCCNC(=N)NC(=O)NCCCCCCCC)CC1` [1,4-bis[3-(n-octylcarbamylguanidino)propyl]piperazine dihydrochloride], the MIC in data set [1] is 2.5 µg/mL.
In data set [1], `CC(C)(C)CC(C)(C)NC(=O)NC(=N)NCCCN1CCN(CCCNC(=N)NC(=O)NC(C)(C)CC(C)(C)C)CC1` [1,4-bis[3-(1,1,3,3-tetramethylbutylcarbamylguanidino)propyl]piperazine dihydrochloride] came in with an MIC of 1.25 µg/mL.
For the molecule `N=C(NCCCN1CCN(CCCNC(=N)NC(=O)NCC2CCCCC2)CC1)NC(=O)NCC1CCCCC1` [1,4-bis[3-(cyclohexylmethylcarbamylguanidino)propyl]piperazine dimethanesulfonic acid salt], the MIC in the data set on E. coli amounted to 6.25 µg/mL; in the data set with S. aureus it was 0.78 µg/mL; with Ps. aeruginosa, 100 µg/mL; with C. albicans, 6.25 µg/mL; in the data set on A. niger, 12.5 µg/mL.
With `CCCCC(CC)CNC(=N)NC(=N)NCCCCCCNC(=N)NC(=N)NCC(CC)CCCC` (stereo not shown) [alexidine, 1,6-bis-(2-ethylhexylbiguanidino)hexane], in data set [2], the “taste perception of foodstuffs” value is “alter taste perception of foodstuffs for several hours”; the clinical antiplaque effectiveness entry is recorded as “clinically effective antiplaque agents”; the local irritation entry was “produce local irritation of the oral mucosa and tongue”; the “staining of teeth, tongue, gums, oral mucosa” value is “produce stains of various colors on the teeth, tongue, gums, oral mucosa”.
`Cl.Cl.N=C(NCCCN1CCN(CCCNC(=N)NC(=O)NCC2CCCCC2)CC1)NC(=O)NCC1CCCCC1` [1,4-bis[(3-cyclohexylmethylcarbamylguanidino)propyl]piperazine dihydrochloride] registered an MIC in data set [1] of 1.25 µg/mL.
On to `N=C(NCCCN1CCN(CCCNC(=N)NC(=O)NCCc2ccc(Cl)cc2)CC1)NC(=O)NCCc1ccc(Cl)cc1` [1,4-bis[3-(2-(4-chlorophenyl)ethylcarbamylguanidino)propyl]piperazine dihydrochloride], for which the MIC in data set [1] came to 1.25 µg/mL.
On the same count and under the same terms, the value for `CCCCC(CC)CNC(=O)NC(=N)NCCCN1CCN(CCCNC(=N)NC(=O)NCC(CC)CCCC)CC1` (stereo not shown) [1,4-bis[3-(2-ethylhexylcarbamylguanidino)propyl]piperazine dihydrochloride] was 5 µg/mL.
As for `N=C(NCCCN1CCN(CCCNC(=N)NC(=O)Nc2ccc(Cl)cc2)CC1)NC(=O)Nc1ccc(Cl)cc1` [Example II], the MIC in data set [1] lay within 0.156 to 0.312 µg/mL (≈ 0.264 to 0.527 µM). In addition, the discoloration of teeth result in data set [3] is on record as “no signs of discoloration”.
For `N=C(NCCCN1CCN(CCCNC(=N)NC(=O)NC23CC4CC(CC(C4)C2)C3)CC1)NC(=O)NC12CC3CC(CC(C3)C1)C2` [1,4-bis[3-((1-adamantyl)carbamylguanidino)propyl]piperazine dimethanesulfonic acid salt], the MIC in the data set with E. coli stood at 25 µg/mL; with S. aureus, 6.25 µg/mL; in the data set on Ps. aeruginosa it was 50 µg/mL; in the data set with C. albicans, 12.5 µg/mL; with A. niger, 12.5 µg/mL.
In the case of `N=C(NCCCN1CCN(CCCNC(=N)NC(=O)NC2CCCCC2)CC1)NC(=O)NC1CCCCC1` [1,4-bis[3-(cyclohexylcarbamylguanidino)propyl]piperazine dimethanesulfonic acid salt], the MIC in the data set with E. coli is 100 µg/mL; in the data set on S. aureus, 50 µg/mL; in the data set with Ps. aeruginosa, 100 µg/mL; with C. albicans, 50 µg/mL; in the data set on A. niger, 100 µg/mL.
With `N=C(NCCN1CCN(CCNC(=N)NC(=O)NC23CC4CC(CC(C4)C2)C3)CC1)NC(=O)NC12CC3CC(CC(C3)C1)C2` [1,4-bis[2-((1-adamantyl)carbamylguanidino)ethyl]piperazine dimethanesulfonic acid salt], the MIC in the data set on E. coli is 12.5 µg/mL; in the data set with S. aureus, 0.39 µg/mL; in the data set with Ps. aeruginosa it was 6.25 µg/mL; in the data set on C. albicans it was 0.78 µg/mL; with A. niger, 50 µg/mL.
On to `CCCCCC(C)NC(=O)NC(=N)NCCCN1CCN(CCCNC(=N)NC(=O)NC(C)CCCCC)CC1` (stereo not shown) [1,4-bis[3-(1-methylhexyl)carbamylguanidino)propyl]piperazine dihydrochloride], for which the MIC turned out to be 12.5 µg/mL with E. coli; 1.56 µg/mL with S. aureus; 25 µg/mL with Ps. aeruginosa; 6.25 µg/mL in the data set on C. albicans; 25 µg/mL with A. niger.
Take `N=C(NCCCN1CCN(CCCNC(=N)NC(=O)NCC2CCCCCC2)CC1)NC(=O)NCC1CCCCCC1` [1,4-bis[3-(cycloheptylmethylcarbamylguanidino)propyl]piperazine dimethanesulfonic acid salt]: the MIC came to 12.5 µg/mL in the data set with E. coli; 0.78 µg/mL in the data set with S. aureus; 12.5 µg/mL in the data set with Ps. aeruginosa; 0.78 µg/mL in the data set on C. albicans; 50 µg/mL in the data set with A. niger.
The molecule `CN(CCNC(=N)NC(=O)Nc1ccc(Cl)cc1)CCN(C)CCNC(=N)NC(=O)Nc1ccc(Cl)cc1` [1,8-bis(4-chlorophenylcarbamylguanidino)-3,6-dimethyl-3,6-diazaoctane] had an MIC in data set [1] of 1.25 µg/mL (≈ 2.21 µM).
On to `[H]/N=C(\N/C(=N/[H])NCCCCCCNC(=N)NC(=N)Nc1ccc(Cl)cc1)Nc1ccc(Cl)cc1` [chlorhexidine, 1,6-bis-(p-chlorophenylbiguanidino)hexane], for which the MIC in the data set with E. coli stood at 1.56 µg/mL (≈ 3.09 µM); with S. aureus it was 0.39 µg/mL (≈ 0.772 µM); in the data set on Ps. aeruginosa, 50 µg/mL (≈ 98.9 µM); in the data set with C. albicans, 3.12 µg/mL (≈ 6.17 µM); with A. niger, 12.5 µg/mL (≈ 24.7 µM). In addition, the discoloration of teeth entry in data set [3] is on record as “greyish-brown discoloration”. For the same molecule, in data set [3] (0.2% versus 1%), the “dependence of amount of discoloration on concentration” value was “independent of the concentration”. Moreover, the “taste perception of foodstuffs” value in data set [2] was “alter taste perception of foodstuffs for several hours”. Also, the clinical antiplaque effectiveness entry in data set [2] was “clinically effective antiplaque agents”. Further, in data set [2], the local irritation entry was “produce local irritation of the oral mucosa and tongue”. Further, the “staining of teeth, tongue, gums, oral mucosa” value in data set [2] was “produce stains of various colors on the teeth, tongue, gums, oral mucosa; also recorded: staining of the teeth, tongue, and gums”.
Regarding `CN(CCCNC(=N)NC(=O)Nc1ccc(Cl)cc1)CCCNC(=N)NC(=O)Nc1ccc(Cl)cc1` [1,7-bis(4-chlorophenylcarbamylguanidine)-4-methyl-4-azaheptane], the MIC in data set [1] was determined as 0.625 µg/mL (≈ 1.17 µM).
